The text below walks through data of patent US7370953B2, “Inkjet recording ink” (FUJIFILM Corporation, priority 2003, dated 2008).

Data set [1] is described as follows: Oxidation potential of dye (vs SCE). The data set is classed as physicochemical. As to conditions: comparative dyes; method not stated. The method, then: The value of oxidation potential (Eox) can be easily measured by those skilled in the art.
In some detail, for the measurement of oxidation potential, the test specimen is dissolved in a solvent such as dimethyl formamide and acetonitrile containing a supporting electrolyte such as sodium perchlorate and tetrapropylammonium perchlorate in a concentration of from […] to 1×10^−6 mol/l. The solution is then measured for oxidation potential with respect to SCE (saturated calomel electrode) by cyclic voltametry or DC polarography, etc. This value may deviate by a few tens of millivolts when affected by the difference in potential between liquids or the resistivity of sample solution, but the reproducibility of potential can be assured by putting a standard sample (e.g., hydroquinone) in the sample solution.
In order to unequivocally define oxidation potential, in the present invention, the value (vs SCE) measured in dimethyl formamide containing 0.1 mol dm^−3 of tetrapropylammonium perchlorate as a supporting electrolyte (dye concentration: 0.001 mol dm^−3) is defined as oxidation potential of dye.

Data set [2] is described as follows: Absorption spectrum of dye. The data set is classed as physicochemical. As to conditions: comparative dyes; ratio as printed. The text has this: To this end, the dye to be used in the invention preferably is a yellow dye having a λmax at a wavelength range of from 390 nm to 470 nm and a I(λmax+70 nm)/I(λmax) ratio of not greater than 0.2, more preferably not greater than 0.1 in which I(λmax) is the absorbance at λmax and I(λmax+70 nm) is the absorbance at λmax+70 nm. Ideally speaking, the lower limit of the ratio is 0. In actuality, however, the lower limit of the ratio is about 0.01.

As to `Cc1nn(-c2ccc(S(=O)(=O)[O-])cc2)c(O)c1/N=N/c1cccc(S(=O)(=O)Nc2cc(C(=O)[O-])cc(C(=O)[O-])c2)c1.[K+].[K+].[K+]` [Yellow dye (C)], in data set [1], the oxidation potential was ≤ 1.0 V (vs SCE). Besides, the “I(λmax)/I(λmax+70 nm) ratio” value in data set [2] is on record as at most 0.4.
Taken in the same sequence, the figures for Direct Yellow 11 [Yellow dye (D)] were ≤ 1.0 V (vs SCE) and “greater than 0.4”.
